Assay results as given in article PMC12441834, “Highly Potent and Subtype-Selective Sperm-Specific Potassium Channel SLO3 Inhibitors Display High Tissue Exposure in the Murine Female Reproductive Tract” (ACS Pharmacology & Translational Science, 2025).
Where two headings read alike, the source gives them in different places.

Experiments:
[1] = Kinetic solubility; assay type: physicochemical; settings: aqueous buffer, kinetic from dmso stock; pH 2.2; pH 6.8; read-out: Kinetic Solubility (pH 2.2; pH6.8)
[2] = Plasma protein binding, equilibrium dialysis; assay type: in vitro ADME
Description: Determination of compounds’ fraction unbound (f u ) in plasma from mouse, rat, and human was conducted in vitro via equilibrium dialysis using HTDialysis membrane plates. Dialysis membranes were hydrated as described by the manufacturer and inserted into the HTD plate, which was assembled and prepared for sample addition by the dispensing of blank buffer (Dulbecco’s Phosphate-Buffered Saline, 100 μL/well) into the trans chamber of each membrane-split well. Each compound was diluted into plasma from each species (5 μM final concentration), which was aliquoted in triplicate in the cis chamber of the prepared HTD plate wells. The HTD plate was sealed and incubated for 6 h at 37 °C. Following incubation, each well (both cis and trans chambers) was transferred (20 μL) to the corresponding wells of a 96-shallow-well (V-bottom) plate. The daughter plates were then matrix-matched (buffer-side wells received an equal volume of plasma, and plasma-side wells received an equal volume of buffer), and an extraction solution (120 μL; acetonitrile containing 50 nM carbamazepine as an internal standard (IS)) was added to all wells of both daughter plates to precipitate protein and extract the test article. The plates were then sealed and centrifuged (3500 rcf) for 10 min at ambient temperature. Supernatant (60 μL) from each well of the daughter plates was then transferred to the corresponding wells of new daughter plates (96-shallow-well, V-bottom) containing water (Milli-Q, 60 μL/well), and the plates were sealed in preparation for liquid chromatography–tandem mass spectrometry (LC-MS/MS) analysis (see below).

[3] = Intrinsic clearance in liver microsomes; assay type: in vitro ADME, rat; settings: for Rat CLhep, % Hepatic blood flow: rat liver microsomes; for CLhep predicted at 1 μM: rat, liver microsomes, pH 7.4, rat liver microsomes, read-out: Rat CLhep (in vitro hepatic clearance from microsomal CLint)
Description: The in vitro intrinsic clearance (CLint) was investigated in commercially obtained hepatic microsomes from mouse, rat, and human donors using the substrate depletion (i.e., loss-of-parent vs time, or half-life (t 1/2) method) approach with analyte detection via liquid chromatography–tandem mass spectrometry (LC-MS/MS). For each species, mean %parent remaining values at each time point were calculated from replicate raw data (analyte:IS peak area ratios) and used to determine in vitro t 1/2 and CLint.
Experiments were carried out by using a robot-assisted liquid handler (Bravo with BenchCell, Agilent). The compound was incubated (1 μM final concentration) in buffer (100 mM potassium phosphate pH 7.4 with 3 mM MgCl2) containing hepatic microsomes (0.5 mg/mL final concentration) from each species, discretely, at 37 °C under constant orbital shaking. After 5 min (preincubation), reactions were initiated by the addition of nicotinamide adenine dinucleotide phosphate (NADPH, 1 mM final concentration). At selected time intervals (0, 3, 7, 15, 25, and 45 min) postaddition of NADPH, aliquots (50 μL) were taken and placed into a 96-shallow-well plate containing ice-cold acetonitrile (150 μL) with carbamazepine (IS, 50 nM). The plates were then centrifuged (3000 rcf at 4 °C) for 10 min. The supernatants were transferred to a new 96-shallow-well daughter plate and diluted (1:1 v/v) with water (Milli-Q filtered). The plates were then sealed for preparation for LC-MS/MS analysis (see below).
Analyte:IS peak area ratios generated by LC-MS/MS were used to construct natural log-transformed %parent remaining vs time plots (using t = 0 min post-NADPH addition sample data as the starting point set to 100%). In vitro compound t 1/2 values were calculated by using the following equation: t1/2=ln(2)/k where k is the slope from the linear regression analysis of the natural log-transformed data (using means from all replicates at each time point). Resulting t 1/2 values were then used to calculate hepatic CLint values according to the following equation and with the use of species-specific scale-up factors for liver weight (grams) per total body weight (kg): CLint=0.693/invitrot1/2×1mLincubation/0.5mgmicrosomes×45mgmicrosomes/1gramliver×garamliver/kgbodywt
^aScale-up factors used are 45 (rat) and 20 (human).
Predicted hepatic clearance (CLhep) was calculated by using the following equation: CLhep=Qh×CLint/Qh+CLint
Q h represents hepatic blood flow (mL/min/kg): 21 for humans, 70 for rats, and 90 for mouse.

[4] = target: T1, hSLO1 (Homo sapiens, UniProt Q12791); assay: SLO1 inhibition in HEK cells; assay type: cell-based
T1 construct: expressed in transfected cells; host or cells: HEK293
Description: HEK293 cells were transfected with the bicistronic vector pBUD-CE4.1 containing the genes of interest and a gene conferring antibiotic resistance. Cells were exposed to gradients of selection antibiotics, and optimal growth conditions for the stable lines were as follows: SLO3 and γ2 (SLO3-γ2) supplemented with 700 μg/mL Zeocin (Invitrogen); human SLO1 and β1 (SLO1-β1) with 1 mg/mL G418 (Sigma) and 3 μg/mL puromycin (Corning, Thermo Fisher); and human SLO1 and β4 (SLO1-β4) with 250 μg/mL Zeocin and 3 μg/mL puromycin. All cell lines were grown in Dulbecco’s Modified Eagle Medium (Gibco, Thermo Fisher) supplemented with 10% fetal bovine serum, 1% penicillin–streptomycin (Millipore Sigma), and selection antibiotics. To generate cells expressing SLO1 and γ2, stable SLO1-expressing HEK293 cells were transiently transfected with expression vectors for γ2 and green fluorescent protein (GFP) in the presence of lipofectamine (Invitrogen) for 5 h.
The cells were then washed and incubated in supplemented Dulbecco’s Modified Eagle Medium for 48 h before use. Patch-clamp electrophysiology was performed only on cells expressing GFP.
Currents in HEK293 cells were measured in the whole-cell patch-clamp configuration with an Axopatch 200B amplifier, digitized with a Digidata 1440A, and interfaced with Clampex 10.6.0.13 (Molecular Devices). […] An isolated cell was located on an Axiovert 200 microscope (Zeiss), and a gigaohm seal was formed with a borosilicate pipette with resistance between 3 and 6 MΩ and filled with internal solution (140 mM KMeSO3, 10 mM HEPES, 10 mM MES, 1 mM EGTA, pH 7). The seal was then broken by applying a negative pressure. Cells were kept at a holding potential of −60 mV for 50 ms, tested with a stepped voltage protocol from −80 to +150 mV in 10 mV increments for 100 ms, and then dropped to −40 mV for 50 ms with 2.5 s between sweeps. This protocol was used to record currents present with increasing concentration of our compound of interest or 3 μL/mL vehicle (DMSO) in the bath solution. Individual cells were tested with between 1 and 5 concentrations of the compound of interest or until the patch was lost. Currents were allowed to stabilize before the initial recording and after the perfusion solution was changed before recording.

[5] = target: Prostanoid EP4 (Homo sapiens, UniProt P35408); assay: LeadProfilingScreen radioligand binding
[6] = target: Histamine H2 (Homo sapiens, UniProt P25021); assay: LeadProfilingScreen radioligand binding
[7] = target: Histamine H1 (Homo sapiens, UniProt P35367); assay: LeadProfilingScreen radioligand binding
[8] = human, fraction unbound, equilibrium dialysis, 5 μM, read-out: Plasma Protein Binding (fu) Human
[9] = mouse, equilibrium dialysis, 5 μM, read-out: Plasma Protein Binding (fu) Mouse
[10] = rat, equilibrium dialysis, 5 μM, read-out: Plasma Protein Binding (fu) Rat

T1 sequence (Q12791 whole entry): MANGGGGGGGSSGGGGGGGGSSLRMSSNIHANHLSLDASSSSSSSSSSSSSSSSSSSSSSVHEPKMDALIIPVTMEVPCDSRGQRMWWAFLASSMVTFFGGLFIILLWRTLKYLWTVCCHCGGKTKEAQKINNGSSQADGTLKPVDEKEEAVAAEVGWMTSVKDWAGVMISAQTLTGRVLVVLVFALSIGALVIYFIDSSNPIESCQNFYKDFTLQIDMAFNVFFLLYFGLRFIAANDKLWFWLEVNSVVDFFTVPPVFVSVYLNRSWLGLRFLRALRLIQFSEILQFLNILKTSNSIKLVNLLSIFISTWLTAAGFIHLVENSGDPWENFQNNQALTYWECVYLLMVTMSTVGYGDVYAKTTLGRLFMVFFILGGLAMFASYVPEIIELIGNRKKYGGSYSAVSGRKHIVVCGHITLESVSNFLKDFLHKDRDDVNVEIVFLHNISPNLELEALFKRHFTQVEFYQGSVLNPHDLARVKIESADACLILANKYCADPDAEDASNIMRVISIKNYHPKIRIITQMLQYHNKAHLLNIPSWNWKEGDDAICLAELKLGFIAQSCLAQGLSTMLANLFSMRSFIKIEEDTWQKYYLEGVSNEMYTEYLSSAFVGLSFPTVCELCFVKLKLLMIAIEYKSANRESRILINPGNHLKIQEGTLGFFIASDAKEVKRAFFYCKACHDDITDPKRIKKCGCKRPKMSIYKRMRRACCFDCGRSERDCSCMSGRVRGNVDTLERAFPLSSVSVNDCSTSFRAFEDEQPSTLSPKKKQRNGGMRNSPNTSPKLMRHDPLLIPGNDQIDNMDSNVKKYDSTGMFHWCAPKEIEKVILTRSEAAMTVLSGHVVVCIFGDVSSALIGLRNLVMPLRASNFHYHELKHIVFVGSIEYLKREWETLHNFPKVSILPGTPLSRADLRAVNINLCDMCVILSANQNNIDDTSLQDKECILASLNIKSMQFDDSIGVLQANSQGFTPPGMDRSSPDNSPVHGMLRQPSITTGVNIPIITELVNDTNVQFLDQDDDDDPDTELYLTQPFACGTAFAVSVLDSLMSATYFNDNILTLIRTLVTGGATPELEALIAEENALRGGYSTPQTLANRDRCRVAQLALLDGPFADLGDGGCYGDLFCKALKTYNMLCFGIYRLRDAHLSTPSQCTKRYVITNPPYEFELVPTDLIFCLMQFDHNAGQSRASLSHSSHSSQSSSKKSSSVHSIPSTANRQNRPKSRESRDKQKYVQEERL
Sequence of Histamine H1 (P35367 whole entry): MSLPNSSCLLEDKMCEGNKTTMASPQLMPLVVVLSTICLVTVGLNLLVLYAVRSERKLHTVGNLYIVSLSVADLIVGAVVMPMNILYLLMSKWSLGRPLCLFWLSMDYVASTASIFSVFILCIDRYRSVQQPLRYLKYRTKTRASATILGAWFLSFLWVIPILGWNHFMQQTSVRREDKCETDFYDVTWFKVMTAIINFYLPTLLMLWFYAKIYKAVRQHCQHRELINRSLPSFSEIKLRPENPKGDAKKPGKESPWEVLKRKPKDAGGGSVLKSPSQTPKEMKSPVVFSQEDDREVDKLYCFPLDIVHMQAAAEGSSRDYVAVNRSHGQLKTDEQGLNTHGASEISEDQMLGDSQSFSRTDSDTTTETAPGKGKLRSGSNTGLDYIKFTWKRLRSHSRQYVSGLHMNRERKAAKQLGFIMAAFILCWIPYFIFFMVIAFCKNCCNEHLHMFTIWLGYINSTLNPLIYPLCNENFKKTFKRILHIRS
Sequence of Prostanoid EP4 (P35408 whole entry): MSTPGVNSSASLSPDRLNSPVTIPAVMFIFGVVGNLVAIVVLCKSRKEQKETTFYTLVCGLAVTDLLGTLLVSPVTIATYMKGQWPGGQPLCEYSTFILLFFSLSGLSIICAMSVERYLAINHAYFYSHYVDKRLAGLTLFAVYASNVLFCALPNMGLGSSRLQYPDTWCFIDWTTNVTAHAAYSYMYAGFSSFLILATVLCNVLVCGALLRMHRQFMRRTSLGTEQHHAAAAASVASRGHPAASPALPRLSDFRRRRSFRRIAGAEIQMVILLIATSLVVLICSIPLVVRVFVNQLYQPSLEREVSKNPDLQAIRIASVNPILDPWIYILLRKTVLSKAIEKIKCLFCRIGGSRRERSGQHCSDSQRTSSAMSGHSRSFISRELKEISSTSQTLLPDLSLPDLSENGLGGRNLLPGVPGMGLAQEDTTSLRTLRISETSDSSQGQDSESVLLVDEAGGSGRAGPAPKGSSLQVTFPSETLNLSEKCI
Sequence of Histamine H2 (P25021 whole entry): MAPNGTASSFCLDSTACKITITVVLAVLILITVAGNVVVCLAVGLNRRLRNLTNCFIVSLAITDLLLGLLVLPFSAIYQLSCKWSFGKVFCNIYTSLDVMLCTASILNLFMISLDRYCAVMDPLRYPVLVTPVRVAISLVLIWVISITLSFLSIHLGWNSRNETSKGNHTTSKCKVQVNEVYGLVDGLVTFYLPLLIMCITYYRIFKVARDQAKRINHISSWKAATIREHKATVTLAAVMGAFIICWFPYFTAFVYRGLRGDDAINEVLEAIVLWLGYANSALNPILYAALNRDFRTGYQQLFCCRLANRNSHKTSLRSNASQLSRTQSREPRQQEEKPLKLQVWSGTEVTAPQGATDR

Row | SMILES | solubility kinetic [1] [µM] | fraction unbound at 6 h, 5 μM [2, 8] | fraction unbound at 6 h, 5 μM [2, 9] | fraction unbound at 6 h, 5 μM [2, 10] | Rat CLhep, % Hepatic blood flow [3] [%] | CLhep predicted at 1 μM [3] [mL/min/kg] | HEK hSLO1 % inhib. at 30 μM ([4]; 30 μM) | inhibition at 10 µM [5] [%] | inhibition at 10 µM [6] [%] | inhibition at 10 µM [7] [%] | IC50 [4] [µM] | SLO1 selectivity (fold selective for SLO3) ([4]; SLO1 IC50 / hSLO3 IC50) [fold] | fraction unbound at 6 h, 5 μM ([2]; human, fraction unbound as percent, read-out: fu in human plasma) | fraction unbound at 6 h, 5 μM ([2]; mouse, read-out: fu in mouse plasma) | fraction unbound at 6 h, 5 μM ([2]; rat, read-out: fu in rat plasma) | inhibition at 30 µM ([4]; HEK293, read-out: HEK hSLO1 % inhib. at 30 μM) [%]
1 | O=C(c1ccc(OCc2ccc(OC(F)(F)F)cc2)cc1)N1CCN(c2ccc(C(F)(F)F)cn2)CC1 [VU6032735] | < 0.95 | 0.0005 | 0.012 | 0.024 | 23 | 16.2 | No inhibition | -2 | 6 | 14 |  |  |  |  |  | 
2 | Cc1cc(Cl)cc2sc(OC3CCN(C(=O)CCCS(=O)(=O)c4cccc(Br)c4)CC3F)nc12 (stereo not shown) [VU6045330] |  |  |  |  |  |  |  |  |  |  | 109 | 802 |  |  |  | 
3 | Cc1cc(Cl)cc2sc(O[C@H]3CCN(C(=O)CCCS(=O)(=O)c4cccc(Br)c4)C[C@H]3F)nc12 [VU6047606] | < 0.85 | 0.001 | 0.0002 | 0.001 | 71 | > 46 |  | 23 | -24 | 11 |  |  | < 0.01 | < 0.01 | < 0.01 | 10
4 | Cc1cc(Cl)cc2sc(O[C@@H]3CCN(C(=O)CCCS(=O)(=O)c4cccc(Br)c4)C[C@H]3F)nc12 [VU6047607] | < 0.85 | 0.002 | 0.004 | 0.004 | 76 | 53.5 |  |  |  |  |  |  |  |  |  | 
5 | Cc1cc(Cl)cc2sc(O[C@@H]3CCN(C(=O)CCCS(=O)(=O)c4cccc(Br)c4)C[C@@H]3F)nc12 [VU6047608] | < 0.85 | 0.001 | 0.004 | 0.002 | 72 | 50.5 |  |  |  |  |  |  |  |  |  | 
6 | Cc1cc(Cl)cc2sc(O[C@H]3CCN(C(=O)CCCS(=O)(=O)c4cccc(Br)c4)C[C@@H]3F)nc12 [VU6047609] | < 0.85 | 0.002 | 0.008 | 0.004 | 89 | 62.4 |  |  |  |  |  |  |  |  |  | 
